From ChEMBL document CHEMBL4418308, “cGAS ANTAGONIST COMPOUNDS” (2017) come the findings set out here.

This assay concerns the target Cyclic GMP-AMP synthase (Homo sapiens, UniProt Q8N884). The assay is described as follows: Inhibition of recombinant His6-SUMO tagged human CGAS expressed in Escherichia coli BL21/pLys cells incubated for 20 mins by Kinase Glo chemiluminescence assay.

Chain of Cyclic GMP-AMP synthase (Q8N884 whole entry): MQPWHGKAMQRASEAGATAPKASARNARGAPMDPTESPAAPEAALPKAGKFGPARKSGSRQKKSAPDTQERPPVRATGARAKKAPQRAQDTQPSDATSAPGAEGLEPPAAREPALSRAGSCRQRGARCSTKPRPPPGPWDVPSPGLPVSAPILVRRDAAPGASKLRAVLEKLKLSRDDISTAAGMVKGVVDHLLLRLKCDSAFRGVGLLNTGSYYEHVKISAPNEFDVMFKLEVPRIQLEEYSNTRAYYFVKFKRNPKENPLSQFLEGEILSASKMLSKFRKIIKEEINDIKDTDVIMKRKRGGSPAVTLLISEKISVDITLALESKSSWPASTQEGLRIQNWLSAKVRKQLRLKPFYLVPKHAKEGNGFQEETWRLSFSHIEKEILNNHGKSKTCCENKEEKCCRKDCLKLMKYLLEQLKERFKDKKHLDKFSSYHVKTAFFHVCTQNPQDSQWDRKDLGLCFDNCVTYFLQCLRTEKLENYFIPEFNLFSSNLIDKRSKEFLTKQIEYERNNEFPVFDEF

`CN1C(=O)S/C(=C\c2cc3nn[nH]c3cc2Br)C1=O`: the IC50 was at least 10 µM.

For `CN1C(=O)S/C(=C\c2cc3c(Cc4cnc(N)nc4)c[nH]c3cc2Br)C1=O`, the IC50 was at least 10 µM.

Turning to `COc1cc(/C=C2\SC(=O)N(C)C2=O)c(Br)cc1-c1nn[nH]n1`, the IC50 was at least 10 µM.

Take `O=C1NC(=O)/C(=C/c2ccncc2C(F)(F)F)S1`: the IC50 was at least 10 µM.

For `COc1cc(/C=C2\SC(=O)N(C)C2=O)c(Br)cc1NS(=O)(=O)c1ccc(C)cc1`, the half-maximal inhibitory concentration (IC50) was at least 10 µM.

Regarding `Nc1ncc(/C=C/c2cc(/C=C3\Sc4ncccc4C3=O)c(Br)cc2O)cn1`, the IC50 was at most 0.5 µM.

For `CNc1ncc(C(C)Oc2cc(/C=C3\SC(=O)N(C)C3=O)c(Br)cc2O)cn1` (configuration not stated), the IC50 was at least 10 µM.

In the case of `CN1C(=O)S/C(=C\c2cc(Oc3cccc(O)c3N)c(O)cc2Br)C1=O`, the IC50 was at least 10 µM.

As to `CN1C(=O)S/C(=C\c2cc(OCc3cnc(Nc4ccccc4)nc3)c(O)cc2Br)C1=O`, the IC50 is at least 10 µM.

As for `Cc1nc(N)nc(C)c1COc1cc(/C=C2\SC(=O)N(C)C2=O)c(Br)cc1O`, the 50% inhibitory concentration (IC50) is at least 10 µM.

`Cc1nc(N)ncc1C(C)Oc1cc(/C=C2\Sc3ncccc3C2=O)c(Br)c(F)c1O` (configuration not stated): the IC50 is at most 0.5 µM.

On to `CN1C(=O)S/C(=C\c2cc(OCC3CCN(C(=O)c4cccnc4)CC3)c(O)cc2Br)C1=O`, for which the IC50 was 0.5 to 10 µM.

Take `COc1cc2c(cc1O)CC/C2=C1/SC(=O)N(C)C1=O`: the IC50 was at least 10 µM.

For `CN1C(=O)S/C(=C\c2cc(OCc3cccc4cnccc34)c(O)cc2Br)C1=O`, the IC50 is at least 10 µM.

For the compound `CN1C(=O)S/C(=C\c2cc(OCc3cnc(-c4cccnc4)nc3)c(O)cc2Br)C1=O`, the IC50 was at least 10 µM.

`O=C1/C(=C/c2cc3nn[nH]c3cc2Br)Sc2ncccc21`: the IC50 was at most 0.5 µM.

Consider `CC(Oc1cc(/C=C2\SC(=O)N(C)C2=O)c(Br)cc1O)c1cnc(Cl)nc1` (configuration not stated), for which the IC50 was at least 10 µM.

On to `CN1C(=O)S/C(=C\c2cc(OCc3cnc(-n4ccnc4)nc3)c(O)cc2Br)C1=O`, for which the IC50 was in the range of 0.5 to 10 µM.

In the case of `COc1cc(/C=c2\sc3nc(C)cn3c2=O)c(Br)cc1O`, the IC50 is at least 10 µM.

Take `CN1C(=O)S/C(=C\c2cc(OCc3cnc(Nc4ccncc4)nc3)c(O)cc2Br)C1=O`: the IC50 was at most 0.5 µM.

As to `CN1C(=O)S/C(=C\c2cc(OCc3ccnc(N)n3)c(O)cc2Br)C1=O`, the IC50 is 0.5 to 10 µM.

As for `CC(Cc1cnc(N)nc1)Oc1cc(/C=C2\SC(=O)N(C)C2=O)c(Br)c(F)c1O` (configuration not stated), the IC50 is 0.5 to 10 µM.

As for `CC(=O)c1cc(N)ccc1Oc1cc(/C=C2\SC(=O)N(C)C2=O)c(Br)c(F)c1O`, the IC50 is at least 10 µM.

Turning to `CN1C(=O)S/C(=C\c2cc(OCc3cnc(NC(=O)c4ccncc4)nc3)c(O)c(F)c2Br)C1=O`, the IC50 was at most 0.5 µM.

With `CCc1cc(/C=C2\Sc3ncccc3C2=O)c(Br)cc1O`, the IC50 was at most 0.5 µM.

Consider `COc1cc(/C=C2\Sc3ncccc3C2=O)c(C)cc1O`, for which the half-inhibitory concentration (IC50) is 0.5 to 10 µM.

Consider `CN1C(=O)S/C(=C\c2cc(OCc3cncnc3O)c(O)cc2Br)C1=O`, for which the IC50 is at most 0.5 µM.

As to `CN1C(=O)S/C(=C\c2cc(OCc3cncc(NCc4ccncc4)c3)c(O)cc2Br)C1=O`, the half-maximal inhibitory concentration (IC50) was at least 10 µM.

`CN1C(=O)S/C(=C\c2cc3oc(=O)[nH]c3cc2Br)C1=O`: the IC50 is at least 10 µM.

With `CN1C(=O)S/C(=C\c2cc(OCc3cncc(N)c3)c(O)cc2Br)C1=O`, the IC50 is at least 10 µM.

Consider `COc1cc(/C=C/C=C2\SC(=O)N(C)C2=O)c(Br)cc1O`, for which the IC50 was at least 10 µM.

Regarding `CN1C(=O)S/C(=C\c2cc(C(F)(F)F)c(O)cc2Br)C1=O`, the IC50 was at most 0.5 µM.

As to `COc1cc(/C=C2\SC(=O)N(C)C2=O)c(Br)cc1NS(=O)(=O)c1ccccc1`, the IC50 is at least 10 µM.

In the case of `[2H]C(C)(Oc1cc(/C=C2\SC(=O)N(C)C2=O)c(Br)c(F)c1O)c1cnc(N)nc1` (configuration not stated), the IC50 was at most 0.5 µM.

For the compound `COc1cc(/C=C2\SC(=O)N(C)C2=S)c(Br)cc1O`, the IC50 was at most 0.5 µM.

Take `CN1C(=O)S/C(=C\c2cc(Oc3cccc4c3COCC4)c(O)cc2Br)C1=O`: the IC50 was at least 10 µM.

For the compound `O=C1NC(=O)/C(=C/c2cncnc2)S1`, the IC50 was at least 10 µM.

On to `CN1C(=O)S/C(=C\c2cc(OCc3ccc(NC(=O)c4cccnc4)nc3)c(O)cc2Br)C1=O`, for which the IC50 lay in the range of 0.5 to 10 µM.

In the case of `COc1ncc(COc2cc(/C=C3\SC(=O)N(C)C3=O)c(Br)cc2O)cn1`, the IC50 is 0.5 to 10 µM.

As for `COc1cc(/C=C2\Sc3ncccc3C2=O)c(Br)c(Cl)c1O`, the IC50 was at most 0.5 µM.

Turning to `O=C1/C(=C/c2ccc(O)cc2Br)Sc2ncccc21`, the IC50 was at most 0.5 µM.

On to `Cc1ncc(COc2cc(/C=C3\SC(=O)N(C)C3=O)c(Br)cc2O)cn1`, for which the IC50 is at most 0.5 µM.

For the compound `COc1cc(/C=c2\sc3n(c2=O)CCN=3)c(Br)cc1O`, the IC50 was at least 10 µM.

Regarding `CN1C(=O)S/C(=C\c2cc(OCc3cnc(-n4cccn4)nc3)c(O)cc2Br)C1=O`, the IC50 fell in the range of 0.5 to 10 µM.

For the compound `COc1nc(SC)ncc1COc1cc(/C=C2\SC(=O)N(C)C2=O)c(Br)cc1O`, the IC50 was at least 10 µM.

In the case of `CN1C(=O)S/C(=C\c2cc(OCc3cnc(-c4ccccc4)nc3)c(O)cc2Br)C1=O`, the half-inhibitory concentration (IC50) was at least 10 µM.

`CN1C(=O)S/C(=C\c2cc(OCc3cnc(N(C)C)nc3)c(O)cc2Br)C1=O`: the IC50 was at least 10 µM.

With `Cc1nc2c(Oc3cc(/C=C4\SC(=O)N(C)C4=O)c(Br)cc3O)cccc2o1`, the IC50 fell in the range of 0.5 to 10 µM.

`CSc1ncc(COc2cc(/C=C3\SC(=O)N(C)C3=O)c(Br)cc2O)c(Cl)n1`: the half-inhibitory concentration (IC50) is at least 10 µM.

For the compound `CN1C(=O)S/C(=C\c2cc(Oc3ccccc3)c(O)cc2Br)C1=O`, the IC50 is at least 10 µM.

For `CN1C(=O)S/C(=C\c2cc(Oc3ccncc3)c(O)cc2Br)C1=O`, the concentration for half-maximal inhibition (IC50) was at least 10 µM.

Consider `CN1C(=O)S/C(=C\c2cc(Oc3cccc4ncccc34)c(O)cc2Br)C1=O`, for which the IC50 was at least 10 µM.

On to `COc1cc(/C=C2\SC(=O)N(C)C2=O)c(Br)cc1OCc1ccncc1`, for which the concentration for half-maximal inhibition (IC50) is at least 10 µM.

In the case of `CN1C(=O)S/C(=C\c2cc(OCc3ccc4cccnc4c3)c(O)cc2Br)C1=O`, the concentration for half-maximal inhibition (IC50) is at least 10 µM.

On to `CCC(Oc1cc(/C=C2\SC(=O)N(C)C2=O)c(Br)c(F)c1O)c1cnc(Cl)nc1` (configuration not stated), for which the IC50 was 0.5 to 10 µM.

As for `CC(=O)c1cc(/C=C2\SC(=O)N(C)C2=O)c(Br)cc1Oc1cnc(N)s1`, the concentration for half-maximal inhibition (IC50) is at least 10 µM.

For the compound `CC(Oc1cc(CC2Sc3ncccc3C2=O)c(Br)c(F)c1O)c1cnc(Cl)nc1` (configuration not stated), the IC50 was at least 10 µM.

On to `CN1C(=O)S/C(=C\c2cc3cc[nH]c3cc2Br)C1=O`, for which the IC50 lay in the range of 0.5 to 10 µM.

Regarding `CSc1ncc(COc2cc(/C=C3\SC(=O)N(C)C3=O)c(Br)cc2O)cn1`, the IC50 is at least 10 µM.

For the compound `CC(C)CNc1cncc(COc2cc(/C=C3\SC(=O)N(C)C3=O)c(Br)cc2O)c1`, the IC50 was at least 10 µM.

With `CC(Oc1cc(/C=C2\SC(=O)N(C)C2=O)c(Br)cc1O)c1cncnc1` (configuration not stated), the IC50 fell in the range of 0.5 to 10 µM.

With `CN1C(=O)S/C(=C\c2cc(OCc3ccn(-c4ccccc4)c(=O)c3)c(O)cc2Br)C1=O`, the half-inhibitory concentration (IC50) was at least 10 µM.

Take `COc1cc(/C=C2\Sc3ncccc3C2=O)c(I)cc1O`: the IC50 is at most 0.5 µM.

With `O=C1NC(=O)/C(=C/c2ccncc2)S1`, the IC50 is at most 0.5 µM.

For the compound `CN1C(=O)S/C(=C\c2cc(OC(F)(F)F)c(Oc3cnc(N)s3)cc2Br)C1=O`, the IC50 was at least 10 µM.

`O=C1NC(=O)/C(=C/c2c[nH]cn2)S1`: the IC50 is at least 10 µM.

On to `O=C1/C(=C/c2cc(OCc3ccncc3)c(O)cc2Br)Sc2ncccc21`, for which the IC50 is at most 0.5 µM.
